Test system: SEM cells
Experiment: cell viability relative to DMSO control; higher = less cytotoxic
Conditions: 48 h
In short: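 NOMO1, SEM and P12-Ichikawa leukemia cells spent at least four passages adapting to each medium before use. They were seeded at 500 cells/well (NOMO1, SEM) or 1000 cells/well (P12-Ichikawa) in 5 μl in 1536-well plates and pin-dosed with library compounds in DMSO at 11 threefold steps from 47 μM down to 0.79 nM. After 48 h at 37°C, CellTiter-Glo One luminescence was read. Viability is reported as a percentage of the DMSO wells on each plate, with cell-free wells as background.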

[1] = HPLM + 10% dialyzed FBS, 0.000781 µM
[2] = HPLM + 10% dialyzed FBS, 0.00234 µM
[3] = HPLM + 10% dialyzed FBS, 0.00702 µM
[4] = HPLM + 10% dialyzed FBS, 0.0211 µM
[5] = HPLM + 10% dialyzed FBS, 0.0632 µM
[6] = HPLM + 10% dialyzed FBS, 0.19 µM
[7] = HPLM + 10% dialyzed FBS, 0.569 µM
[8] = HPLM + 10% dialyzed FBS, 1.71 µM
[9] = HPLM + 10% dialyzed FBS, 5.12 µM
[10] = HPLM + 10% dialyzed FBS, 15.4 µM
[11] = HPLM + 10% dialyzed FBS, 46.1 µM
[12] = RPMI 5 mM glucose + 10% FBS, 0.000781 µM
[13] = RPMI 5 mM glucose + 10% FBS, 0.00234 µM
[14] = RPMI 5 mM glucose + 10% FBS, 0.00702 µM
[15] = RPMI 5 mM glucose + 10% FBS, 0.0211 µM
[16] = RPMI 5 mM glucose + 10% FBS, 0.0632 µM
[17] = RPMI 5 mM glucose + 10% FBS, 0.19 µM
[18] = RPMI 5 mM glucose + 10% FBS, 0.569 µM
[19] = RPMI 5 mM glucose + 10% FBS, 1.71 µM
[20] = RPMI 5 mM glucose + 10% FBS, 5.12 µM
[21] = RPMI 5 mM glucose + 10% FBS, 15.4 µM
[22] = RPMI 5 mM glucose + 10% FBS, 46.1 µM
[23] = RPMI 5 mM glucose + 10% dialyzed FBS, 0.000781 µM
[24] = RPMI 5 mM glucose + 10% dialyzed FBS, 0.00234 µM
[25] = RPMI 5 mM glucose + 10% dialyzed FBS, 0.00702 µM
[26] = RPMI 5 mM glucose + 10% dialyzed FBS, 0.0211 µM
[27] = RPMI 5 mM glucose + 10% dialyzed FBS, 0.0632 µM
[28] = RPMI 5 mM glucose + 10% dialyzed FBS, 0.19 µM
[29] = RPMI 5 mM glucose + 10% dialyzed FBS, 0.569 µM
[30] = RPMI 5 mM glucose + 10% dialyzed FBS, 1.71 µM
[31] = RPMI 5 mM glucose + 10% dialyzed FBS, 5.12 µM
[32] = RPMI 5 mM glucose + 10% dialyzed FBS, 15.4 µM
[33] = RPMI 5 mM glucose + 10% dialyzed FBS, 46.1 µM

Row | SMILES | cell viability [1] | cell viability [2] | cell viability [3] | cell viability [4] | cell viability [5] | cell viability [6] | cell viability [7] | cell viability [8] | cell viability [9] | cell viability [10] | cell viability [11] | cell viability [12] | cell viability [13] | cell viability [14] | cell viability [15] | cell viability [16] | cell viability [17] | cell viability [18] | cell viability [19] | cell viability [20] | cell viability [21] | cell viability [22] | cell viability [23] | cell viability [24] | cell viability [25] | cell viability [26] | cell viability [27] | cell viability [28] | cell viability [29] | cell viability [30] | cell viability [31] | cell viability [32] | cell viability [33]
1 | CC(C)c1cc(C(C)C)c(CC(=O)N[S+](=O)([O-])Oc2c(C(C)C)cccc2C(C)C)c(C(C)C)c1 | 93.7% | 108% | 107% | 96.2% | 100% | 106% | 108% | 102% | 99.7% | 99% | 95.1% | 114% | 119% | 114% | 121% | 114% | 121% | 116% | 115% | 130% | 122% | 115% | 90.5% | 104% | 103% | 104% | 108% | 104% | 103% | 97.3% | 96.8% | 88.6% | 93.3%
2 | O=C(c1ccccc1)c1ccc2n1CCC2C(=O)O (configuration not stated) | 117% | 118% | 104% | 107% | 114% | 113% | 112% | 113% | 81.9% | 67.8% | 77.6% |  |  |  |  |  |  |  |  |  |  |  | 124% | 121% | 129% | 134% | 125% | 121% | 118% | 114% | 90.3% | 59.4% | 72.2%
3 | COc1ccc(C(=O)CC2(O)C(=O)Nc3c(Cl)ccc(Cl)c32)cc1 (configuration not stated) | 87% | 108% | 111% | 110% | 104% | 109% | 113% | 107% | 45.9% | 20.5% | 16.2% | 75.7% | 98.4% | 99.7% | 79.3% | 94.1% | 85.1% | 81.2% | 65.7% | 41.4% | 10.7% | 9.15% | 94.8% | 101% | 107% | 88.9% | 104% | 107% | 107% | 90.3% | 47.3% | 20.4% | 14.9%
4 | N[C@@H]1CONC1=O | 99.7% | 100% | 103% | 97.7% | 104% | 109% | 107% | 98.5% | 104% | 103% | 118% | 91.3% | 96% | 84.7% | 93.5% | 86% | 93.3% | 108% | 94.9% | 89.6% | 92.2% | 92.4% | 91.2% | 81.3% | 89.7% | 89.2% | 97.8% | 87.4% | 101% | 93.7% | 81.6% | 101% | 80.6%
5 | COc1cc(C(=O)N2CC[C@@H](O)[C@@H](N)C2)cc2nc(-c3cc4ccccc4n3CC3CC3)n(C)c12 | 97.9% | 118% | 116% | 124% | 119% | 117% | 124% | 51.1% | 28.6% | 27.4% | 20.1% |  |  |  |  |  |  |  |  |  |  |  |  |  |  |  |  |  |  |  |  |  | 
6 | C[C@@H]1CCO[C@H]2CN\3/C=C(/C(=O)NCC4=C(F)C=C(F)C=C4)C(=O)\C(=C3C(=O)N12)O | 82.2% | 104% | 85% | 104% | 73.4% | 91.6% | 105% | 103% | 104% | 91.5% | 85.3% | 100% | 95.2% | 99.6% | 98.5% | 44.4% | 111% | 104% | 112% | 107% | 85.8% | 88.1% | 93.4% | 98.7% | 95.2% | 96.3% | 99.1% | 100% | 107% | 99.3% | 94.6% | 96.7% | 86.6%
7 | CC(N[C@H]1CCCC[C@@H]1NC(=O)c1ccc(Cl)cc1)c1cccc2ccccc12 (some centres not stated) | 98.2% | 105% | 110% | 114% | 111% | 112% | 101% | 115% | 112% | 118% | 119% | 92.2% | 102% | 109% | 120% | 107% | 108% | 121% | 113% | 119% | 138% | 110% | 120% | 112% | 109% | 114% | 116% | 114% | 125% | 127% | 115% | 133% | 121%
8 | OCC(O)C(O)C(O)CO (configuration not stated) | 85.4% | 83.7% | 98.2% | 101% | 103% | 102% | 73.8% | 94.7% | 91.6% | 37.5% | 88.9% | 89% | 91.1% | 92.2% | 95.9% | 109% | 102% | 80.2% | 103% | 97.8% | 29.8% | 86.4% | 103% | 105% | 102% | 101% | 88.6% | 89.1% | 64.6% | 91.5% | 109% | 30.3% | 93%
9 | CNCC[C@H](Oc1cccc2ccccc12)c1cccs1 | 121% | 128% | 110% | 122% | 121% | 130% | 111% | 99.4% | 110% | 84.2% | 46.4% | 124% | 117% | 119% | 116% | 110% | 136% | 111% | 107% | 86% | 96.2% | 24% |  |  |  |  |  |  |  |  |  |  | 
10 | O=C(O)CCNC(=O)c1ccc(/N=N/c2ccc(O)c(C(=O)O)c2)cc1 | 116% | 108% | 118% | 109% | 106% | 105% | 98.9% | 105% | 103% | 101% | 96.7% |  |  |  |  |  |  |  |  |  |  |  |  |  |  |  |  |  |  |  |  |  | 
11 | CCCCOc1c(C(=O)c2c(F)cc(C)cc2F)cnc2[nH]ncc12 | 107% | 111% | 104% | 110% | 115% | 108% | 108% | 92% | 70.4% | 64.1% | 30.9% | 104% | 105% | 103% | 113% | 114% | 118% | 114% | 89.6% | 60.6% | 71.8% | 35.6% | 93.2% | 96.5% | 96.9% | 86.8% | 107% | 106% | 104% | 84.4% | 71.6% | 56.8% | 25.3%
12 | COC(=O)C\1=C(C)\N\C(=C(/C1C2=CC=CC3=NON=C23)C(=O)OC(C)C)C (configuration not stated) | 105% | 98.6% | 97.7% | 105% | 109% | 100% | 95% | 83.6% | 110% | 90.4% | 80.1% | 87.2% | 96.4% | 107% | 126% | 101% | 100% | 98.2% | 95% | 85.5% | 88% | 78.6% | 98.9% | 96.9% | 104% | 110% | 111% | 114% | 114% | 95.2% | 87.2% | 99.2% | 70.8%
13 | CN(C)CC(C)(C)CNc1nn2c(-c3ccccc3)nnc2cc1C1CCC1 | 79.6% | 98.8% | 100% | 98% | 92.1% | 114% | 5.79% | 101% | 92.3% | 82.7% | 62.4% | 92.9% | 116% | 104% | 127% | 110% | 125% | 6.41% | 106% | 103% | 81.1% | 73.1% | 68.1% | 123% | 101% | 113% | 105% | 110% | 5.36% | 102% | 106% | 71.8% | 77.8%
14 | C[C@]12CC[C@H]3[C@@H](CCC4=CC(=O)CC[C@@H]43)[C@@H]1CC[C@@H]2OC(=O)CCc1ccccc1 | 83.2% | 22.9% | 101% | 93.8% | 100% | 98.5% | 94.3% | 99.6% | 85.9% | 91.4% | 93.6% | 116% | 24.5% | 123% | 111% | 116% | 115% | 108% | 122% | 110% | 120% | 114% | 99.4% | 26.5% | 107% | 122% | 112% | 109% | 104% | 123% | 100% | 125% | 113%
15 | Nc1ncnc2c1ncn2[C@@H]1O[C@H](CO)C[C@H]1O | 95.8% | 98% | 111% | 106% | 111% | 101% | 103% | 97.4% | 79.7% | 59.4% | 41.2% | 95% | 96% | 99.6% | 98.7% | 104% | 93.2% | 95.4% | 93.6% | 97.8% | 73% | 67.7% | 86.7% | 93.4% | 87.9% | 99.7% | 96.1% | 91.7% | 95.6% | 89.6% | 91.1% | 65% | 41.7%
16 | CC1=CC(=CC(=C1C\C2=N\CCN2)C)C(C)(C)C | 58.5% | 90.1% | 83.4% | 100% | 88.3% | 98.1% | 97.4% | 100% | 106% | 107% | 77.6% | 77.8% | 104% | 91.7% | 101% | 103% | 96.4% | 110% | 104% | 110% | 83.3% | 94.9% | 89.1% | 96.3% | 102% | 105% | 118% | 107% | 118% | 112% | 113% | 120% | 94.7%
